# Source: patent US4299821A, “Tripeptides acting on the central nervous system and a process for the preparation thereof” (Richter Gedeon Vegyeszeti Gyar Rt., priority 1979, dated 1981)
# Where a SMILES comes first, the peptide text is derived from it. [ ]: non-standard residue; d: D form. pGlu = O=C1CC[C@@H](C(=O)O)N1; Nle = CCCC[C@H](N)C(=O)O; Nva = CCC[C@H](N)C(=O)O; Abu = CC[C@H](N)C(=O)O
# Columns and labels:
# [1] = tested on: Haloperidol-induced catalepsy; assay: Inhibition of Haloperidol-induced catalepsy on rats; format: in vivo, male Wistar rats; conditions: 40 mg/kg Haloperidol s.c., compound i.v. 120 min later, probit analysis, observation time per compound
# Experimental: (1) Inhibition of Haloperidol-induced catalepsy on rats (see J. Delay and P. Deniker: Compt. Rend. Congr. Med. Alenistes Neurologistes, 19, 497, Luxembourg, 1952)
# The tests were performed on male Wistar rats weighing 160 to 180 g.
# 40 mg/kg of 4-(p-chlorophenyl)-1-(3-/p-fluorobenzoyl/propyl)-piperidin-4-ol(Haloperidol) were administered subcutaneously into the animals, and 120 minutes after this treatment the animals were checked for the appearance of catalepsy. The rats were divided into groups of 10 animals each, and treated intravenously with TRH or the new TRH analogues. The animals belonging to the control group received physiological saline. The catalepsy-suspending effects of the individual compounds were determined 15, 30, 60, 90 and 120 minutes after the treatment. The animals that had not changed their position for 30 seconds after placing their fore-paw onto a 7 cm high column were regarded as cataleptic.
# [2] = tested on: Reserpine hypothermy; assay: Reserpine hypothermy-reversing effect on mice; format: in vivo, male mice; conditions: average of 10 animals; for Reserpine hypothermy reversing effect, Rectal temperature res.: 16 hours after reserpine 5 mg/kg i.p., before the tripeptide; for Reserpine hypothermy reversing effect, Rectal temperature norm.: prior to the administration of reserpine (baseline of the group); for Reserpine hypothermy reversing effect, Rectal temperature obs. time 1 h / Reserpine hypothermy reversing effect, Rectal temperature obs. time 2 h: reserpine 5 mg/kg i.p.; for Reserpine hypothermy reversing effect, Rectal temperature obs. time 1 h: 1 hour after 20 mg/kg of the tripeptide; for Reserpine hypothermy reversing effect, Rectal temperature obs. time 2 h: 2 hours after 20 mg/kg of the tripeptide
# Experimental: (3) Reserpine hypothermy-reversing effect on mice (see B. M. Askew: Life Sci. 2, 725-730 /1963/)
# The tests were performed on groups of 10 male mice each, weighing 18 to 22 g. Reserpine was administered into the animals in an intraperitoneal dosage of 5 mg/kg, and 16 hours later the animals were treated with 20 mg/kg of TRH or a tripeptide under examination.
# The rectal temperature of the animals was measured prior to the administration of reserpine (marked by "norm." in Table 1), 16 hours after the administration of reserpine (marked by "res." in Table 1), furthermore 1 and 2 hours after the administration of the tripeptide (marked by "obs. time" in Table 1). The data listed in Table 1 are the averages of the temperatures observed on the 10 animals.
# [3] = tested on: Ethanol narcosis; assay: Ethanol narcosis; format: in vivo; conditions: mice, 4.5 g ethanol i.p., 10 min later compound 20 mg/kg i.p.; control 46.9 ± 2.17 min.
# Experimental: (5) Ethanol narcosis (see J. M. Cott et al.: J. Pharm. Exp. Ther. 196, 594 /1976/) The tests were performed on groups of 20 mice of both sexes, each weighing 18 to 22 g. […] of ethanol were introduced intraperitoneally into the animals, and 10 minutes later the animals were treated intraperitoneally with 20 mg/kg of TRH or a tripeptide under examination. The sleeping periods of the animals were recorded, averages were calculated for the individual groups, and the results were expressed as percents related to the control group.
# [4] = tested on: sleeping caused by hexobarbital; assay: Influencing the duration of sleeping caused by hexobarbital; format: in vivo, male mice; conditions: mice, hexobarbital sodium 60 mg/kg i.v., 10 min later compound 20 mg/kg i.p.; control 38.4 ± 1.36 min.
# Experimental: (4) Influencing the duration of sleeping caused by hexobarbital The tests were performed on groups of 10 male mice each. The animals were treated intravenously with 60 mg/kg of hexobarbital sodium ([…]; Bayer), and 10 minutes later 20 mg/kg of TRH or a tripeptide under examination were administered intraperitoneally into the animals. The sleeping times of the animals were recorded, averages were calculated for the individual groups, and the results were expressed as percents related to the control group.
# [5] = tested on: TSH; assay: Hormonal activity (TSH effect) on rats; format: in vivo, male Wistar rats; conditions: 20 mg/kg i.v., plasma TSH by radioimmune assay 15 min after treatment, relative activity, TRH = 100%
# Experimental: (6) Hormonal activity (TSH effect) on rats
# The tests were performed on groups of 7 or 8 male Wistar rats each, weighing 200 g. The animals were treated intravenously with 20 mg/kg of TRH or a tripeptide under examination. The TSH reaction of the animals was evaluated 15 minutes after this treatment, by subjecting the blood plasma to radioimmune assay. The relative activities were calculated by the four-point method using a TPA 101 computer, and the activity of TRH was regarded as 100%.
# [6] = tested on: locomotive activity induced by L-Dopa; assay: Potentiation of locomotive activity induced on mice by L-Dopa; format: in vivo, male mice; conditions: Pargyline 40 mg/kg i.p., compound 20 mg/kg i.p., L-Dopa 100 mg/kg i.p., percent related to TRH; for Potentiation of the locomotive effect of L-Dopa % after 30': 30 min; for Potentiation of the locomotive effect of L-Dopa % after 60': 60 min; for Potentiation of the locomotive effect of L-Dopa % after 90': 90 min
# Experimental: (2) Potentiation of locomotive activity induced on mice by L-Dopa (see The Thyroid Axis, Drugs and Behavior, p. 116, A. J. Prage Jr., Raven Press, New York, 1974)
# The tests were performed on groups of 15 male mice each, weighing 18 to 22 g.
# First, the animals were treated intraperitoneally with 40 mg/kg of N-methyl-N-propargyl-benzylamine (Pargyline), and then an intraperitoneal dosage of 20 mg/kg of TRH or a TRH-analogue was introduced, followed by an intraperitoneal dosage of 100 mg/kg of L-Dopa. The locomotive activity of the animals was recorded 30, 60 and 90 minutes after this treatment, and the level of potentiation was expressed in percents related to the results observed with TRH.
SMILES,Inhibition of Haloperidol catalepsy ED50 [1] [mg/kg],"Reserpine hypothermy reversing effect, Rectal temperature res. [2] [°C]","Reserpine hypothermy reversing effect, Rectal temperature norm. [2] [°C]","Reserpine hypothermy reversing effect, Rectal temperature obs. time 1 h [2] [°C]","Reserpine hypothermy reversing effect, Rectal temperature obs. time 2 h [2] [°C]",Decrease of sleeping period (% related to the control animals) Ethanol [3] [%],Decrease of sleeping period (% related to the control animals) Hexobarb. [4] [%],TSH effect [5] [%],Potentiation of the locomotive effect of L-Dopa % after 30' [6] [%],Potentiation of the locomotive effect of L-Dopa % after 60' [6] [%],Potentiation of the locomotive effect of L-Dopa % after 90' [6] [%]
"CC[C@H](NC(=O)[C@@H]1CCC(=O)N1)C(=O)N1CCC[C@H]1C(N)=O [Abu Pro H, L-Pyroglutamyl-L-α-aminobutyl-L-prolinamide] ([pGlu]-[Abu]-Pro-NH2)",80,19.7,36.3,22.2,25.4,39,84,0.02,27,14,18
"NC(=O)[C@@H]1CCCCN1C(=O)[C@H](Cc1c[nH]cn1)NC(=O)[C@@H]1CCC(=O)N1 [His HPro H, L-Pyroglutamyl-L-histidyl-L-homoprolinamide]",13.7,28.5,36.5,35.3,35.4,114,63,68.6,209,85,110
"CCNC(=O)[C@@H]1CCCN1C(=O)[C@H](CC(C)C)NC(=O)[C@@H]1CCC(=O)N1 [Leu Pro Et, L-Pyroglutamyl-L-leucyl-L-proline ethylamide] ([pGlu]-Leu-Pro-NHEt)",56.6,28.7,36.2,30.7,33.4,65,126,0,102,90,201
"CCCC[C@H](NC(=O)[C@@H]1CCC(=O)N1)C(=O)N1CCC[C@H]1C(N)=O [Nleu Pro H, L-Pyroglutamyl-L-norleucyl-L-prolinamide] ([pGlu]-[Nle]-Pro-NH2)",16.8,27.1,36.3,37.6,32.2,74,77,3.8,249,105,112
"CCC[C@H](NC(=O)[C@@H]1CCC(=O)N1)C(=O)N1CCC[C@H]1C(N)=O [Nva Pro H, L-Pyroglutamyl-L-norvalyl-L-prolinamide] ([pGlu]-[Nva]-Pro-NH2)",11.4,25.9,36.2,36.4,32.0,77,114,0,254,156,214
"NC(=O)[C@@H]1CCCN1C(=O)[C@H](Cc1c[nH]cn1)NC(=O)[C@@H]1CCC(=O)N1 [TRH, L-pyroglutamyl-L-histidyl-L-prolinamide, reference compound]",80,25.9,36.2,33.5,30.2,35,56,100.0,100,100,100
